The values that follow are results of earlier work, collected in patent US7348294B2, “Adsorbent and method for adsorbing cardiac glycoside” (Kaneka Corporation, priority 2000, dated 2008).

A word on the log P: it is a log measure of how a compound divides between an organic and an aqueous phase.

For this series the following is noted: octanol-water; ligand before immobilization.

As for `CCCCN` [n-butylamine], the “log P” value is 0.97.
